In patent US11357752B2, “Carolacton and derivatives thereof for use in the treatment of cell proliferation disorders” (Helmholtz-Zentrum für Infektionsforschung GmbH, priority 2017, dated 2022):
Where “and” joins values, the source holds several entries; their conditions need not be identical. Equal entries are not always repeated.

Biological target: T1, ecFoID (Escherichia coli, UniProt P24186)
T1 construct: His-tag (vector pHis-TEV); made in house; host or cells: E. coli BL21 (DE3)
Assay: FoID cyclohydrolase (CYH) enzyme assay
Format: biochemical, E. coli
Description: (6R,S)-5,10-Methylene-5,6,7,8-tetrahydrofolic acid ((6R,S)-5,10-CH2-THF), calcium salt and (6R,S)-5,10-Methenyl-5,6,7,8-tetrahydrofolic acid ((6R,S)-5,10-CH=THF) chloride were purchased from Schircks Laboratories (Bauma, Switzerland) and were used as substrates for FoID dehydrogenase and cyclohydrolase enzyme assays, respectively. Only the R-isomer, which accounts for 50% of (6R,S)-5,10-CH2-THF and (6R,S)-5,10-CH=THF, respectively, is used by the enzyme. (6R,S)-5,10-CH2-THF was dissolved in N2-spargeled basic buffer (50 mM Tris-HCl (pH 8.0), 100 mM β-mercaptoethanol) as described by Sah and Varshney, 2015a (6R,S)-5,10-CH=THF was first dissolved in DMSO as a 100 mM stock solution.
Because FoID is a bifunctional enzyme, dehydrogenase and cyclohydrolase activities were determined for FoID enzyme kinetics, respectively. The dehydrogenase activity of FoID was assayed for its substrate 5,10-CH2-THF and cofactor NADP+ (in the case of MTHFD2, NAD+ was used as cofactor) based on monitoring the formation of 5,10-CH=THF while the cyclohydrolase activity of FoID was determined for its substrate 5,10-CH=THF by monitoring the hydrolysis of 5,10-CH2-THF. The enzyme kinetics for the dehydrogenase activity of all FoIDs except hsMTHFD1_DC were determined at 30° C. in 50 mM Tris-HCl (pH 7.5), 30 mM β-mercaptoethanol. […]

CO[C@H](CC(=O)O)[C@@H](C)C(=O)[C@H](C)/C=C(\C)[C@H]1OC(=O)[C@H](O)[C@H](O)/C=C/[C@H](C)CCC[C@@H]1C [Carolacton, carolacton]
IC50: 49.8 nM
Ki (Ki (5,10-CH═THF), carolacton inhibition on CYH activity, ecFoID, vs 5,10-CH=THF): 32 nM and 31.6 nM
